Assay type in all cases: in vitro ADME
The target in data set [1] is T1, CYP3A4 (Homo sapiens, UniProt P08684). The experiment in a line: Kinetic analysis of CK metabolism by recombinant CYP3A4. Also on record: purchased Cypex Ltd. (U.K.). The following applies: recombinant CYP3A4 10 pmol, CK 10–100 μM. Here is the method: (§1) The method was conducted according to our previous study with some modifications. The CYP isoform-specific probe reactions used were phenacetin O-deethylation (for CYP1A2), coumarin 7-hydroxylation (for CYP2A6), tolbutamide 4-hydroxylation (for CYP2C9), metoprolol α-hydroxylation (for CYP2D6), chlorzoxazone 6-hydroxylation (for CYP2E1),S-Mephenytoin 4-hydroxylation (for CYP2C19), and midazolam 1-hydroxylation (for CYP3A4). The kinetic study of CK was conducted with HLMs. A 0.2 mL incubation mixture that consisted of CK (as a substrate), the HLMs (0.5 mg/mL) or CYP isoforms (10 pmol), and 0.1 M sodium phosphate buffer (pH 7.4) was pre-warmed for 5 min at 37°C. The reaction was initiated by the addition of 1 mg/mL triphosphopyridine nucleotide (NADPH). […]
T1 sequence (P08684 whole entry, canonical isoform): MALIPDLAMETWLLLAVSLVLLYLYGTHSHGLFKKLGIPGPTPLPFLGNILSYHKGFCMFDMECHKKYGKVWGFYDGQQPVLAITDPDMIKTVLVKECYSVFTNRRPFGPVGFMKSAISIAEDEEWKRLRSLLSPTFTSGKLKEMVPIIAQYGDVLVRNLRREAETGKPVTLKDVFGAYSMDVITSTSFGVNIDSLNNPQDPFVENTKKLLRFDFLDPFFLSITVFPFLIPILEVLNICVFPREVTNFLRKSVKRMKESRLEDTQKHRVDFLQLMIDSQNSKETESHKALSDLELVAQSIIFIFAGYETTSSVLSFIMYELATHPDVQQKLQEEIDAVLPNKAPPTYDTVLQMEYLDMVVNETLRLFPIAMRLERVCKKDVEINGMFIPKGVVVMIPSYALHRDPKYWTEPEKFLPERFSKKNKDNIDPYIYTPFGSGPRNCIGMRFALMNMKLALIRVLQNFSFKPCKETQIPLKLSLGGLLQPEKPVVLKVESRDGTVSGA
(§2) The kinetic parameters for the metabolism of CK were determined by incubating increasing concentrations of CK (10–100 μM) at 37°C with the HLMs and NADPH under the incubation conditions as described in detail previously. The equation of CK reaction velocity (V) in the HLMs or CYP isoforms is expressed as V = (C0–Ct)/T/Cp, where C0and Ct are the initial and final concentrations of CK in the incubation solution, respectively, T is the incubation time (min), and Cp is the protein concentration (mg/mL or nmol). All values were expressed as the mean±standard deviation (SD). […]

The target in data set [2] is T1, CYP3A4. Kind of data set: Inhibition of CYP3A4 (midazolam 1-hydroxylation) by CK in HLMs. Also on record: tissue Cypex Ltd. (U.K.); host or cells: pooled human liver microsomes. As to the method: The method was conducted according to our previous study with some modifications. The CYP isoform-specific probe reactions used were phenacetin O-deethylation (for CYP1A2), coumarin 7-hydroxylation (for CYP2A6), tolbutamide 4-hydroxylation (for CYP2C9), metoprolol α-hydroxylation (for CYP2D6), chlorzoxazone 6-hydroxylation (for CYP2E1),S-Mephenytoin 4-hydroxylation (for CYP2C19), and midazolam 1-hydroxylation (for CYP3A4). The kinetic study of CK was conducted with HLMs. A 0.2 mL incubation mixture that consisted of CK (as a substrate), the HLMs (0.5 mg/mL) or CYP isoforms (10 pmol), and 0.1 M sodium phosphate buffer (pH 7.4) was pre-warmed for 5 min at 37°C. The reaction was initiated by the addition of 1 mg/mL triphosphopyridine nucleotide (NADPH). All the reagents were dissolved in methanol, and the final solvent concentration in all incubations (including the controls) was 1%. The final incubations were performed in a shaking water bath (37°C) for 30 min. The reactions were stopped by adding 0.2 mL ice-cold acetonitrile, which contains irbesartan (114.9 ng/mL) as the internal standard. The samples were vortexed for 5 min. After centrifugation (12000×g for 10 min), the supernatants were transferred, and aliquots of 20 μL were injected into the HPLC-MS/MS system for analysis.
CK (10–100 μM) and a single CYP isoform-specific substrate (with a concentration similar to its corresponding Kmvalue) were used to determine the inhibitory effect of CK on specific CYP isoforms as described in detail previously. Substrates including phenacetin, coumarin, tolbutamide, metoprolol, chlorzoxazone, S-Mephenytoin, and midazolam were used at concentrations of 10, 5, 100, 7.5, 40, 100, and 5 μM, respectively. All incubation conditions were the same as mentioned above. The inhibitory effects on the CYP isoforms were investigated individually by incubating the HLMs in the absence or presence of CK. The incubation solution with the solvent that was used to dissolve CK was regarded as the negative control, and the solutions containing the specific inhibitors mentioned above were considered the positive controls.
The inhibition data obtained from the pilot experiments were used as a guide to generate the appropriate probe substrate and test inhibitor concentrations for the determination of the Ki values for each CYP isoform. The isoform-specific probe substrate concentrations used were 25–200 μM tolbutamide for CYP2C9 and 5–50 μM midazolam for CYP3A4. The CK concentrations used were 10–100 μM.
When Ki>Ki’, the intersection was above the [I] axis in the plot of S/V against [I] and below it in the Dixon plot; the opposite was true if Ki<Ki’. In the special case where Ki = Ki’ (simple non-competitive inhibition), the intersections occurred on the [I] axis in both plots. The asymptotic cases of competitive and uncompetitive inhibition can be generated by inserting the conditions Ki’ to ∞ for competitive inhibition, or Ki to ∞ for uncompetitive inhibition.
As described in detail previously, to determine the major enzymes responsible for the CK metabolism in HLMs, the metabolic clearance rate of the incubation solution without any specific inhibitor for CK was considered as 100%. The effects of the specific inhibitors on the metabolic clearance rate of CK were evaluated with SPSS one-way analysis of variance (SPSS Inc., Chicago, IL, USA). P<0.05 was considered significant in all cases. The apparent kinetic parameters of CK (Km and Vmax) were determined by fitting the Michaelis–Menten equation using the GraphPad Prism Enzyme Kinetic 5 Demo software (GraphPad Co. Ltd, San Diego, CA, USA).

In data set [3] the target is CYP2C9 (Homo sapiens, UniProt P11712). The experiment in a line: Kinetic analysis of CK metabolism by recombinant CYP2C9. Also on record: purchased Cypex Ltd. (U.K.). The following applies: recombinant CYP2C9 10 pmol, CK 10–100 μM. As to the method: as §1, §2
Sequence of CYP2C9 (P11712 whole entry): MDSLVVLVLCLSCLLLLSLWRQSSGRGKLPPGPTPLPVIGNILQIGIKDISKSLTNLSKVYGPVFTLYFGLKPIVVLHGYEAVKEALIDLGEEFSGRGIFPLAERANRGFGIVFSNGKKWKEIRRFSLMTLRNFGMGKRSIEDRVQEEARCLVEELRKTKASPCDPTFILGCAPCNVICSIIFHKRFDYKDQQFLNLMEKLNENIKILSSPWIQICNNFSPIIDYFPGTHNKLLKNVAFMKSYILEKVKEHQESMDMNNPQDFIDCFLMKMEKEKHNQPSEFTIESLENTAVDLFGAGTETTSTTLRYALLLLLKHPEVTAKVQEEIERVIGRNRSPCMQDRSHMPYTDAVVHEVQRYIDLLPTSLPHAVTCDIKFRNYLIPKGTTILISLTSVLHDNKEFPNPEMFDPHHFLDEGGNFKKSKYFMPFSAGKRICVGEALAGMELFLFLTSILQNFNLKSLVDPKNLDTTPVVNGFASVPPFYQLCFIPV
The mark [4] stands for this setting: CYP3A4 in HLMs, ketoconazole values ref 17.

This note sets out measurements from publication PMC4742234, “Screening of Drug Metabolizing Enzymes for the Ginsenoside Compound K In Vitro: An Efficient Anti-Cancer Substance Originating from Panax Ginseng” (PLoS ONE, 2016).

SMILES strings stand for the structures. Where “and” joins values, the source holds several entries; their conditions need not be identical. Equal values may be shown once.

In general, IC50 refers to the concentration that inhibits the measured activity by half. Read a high IC50 as lower potency. In general, Ki refers to the equilibrium dissociation constant of an inhibitor or competing ligand from its target.

As for `CC(C)=CCC[C@](C)(OC1O[C@H](CO)[C@@H](O)[C@H](O)[C@H]1O)[C@H]1CC[C@]2(C)[C@@H]1[C@H](O)C[C@@H]1[C@@]3(C)CC[C@H](O)C(C)(C)[C@@H]3CC[C@]12C` (stereo partly drawn) [CK, 20-O-β-(D-glucopyranosyl)-20(S)-protopanaxadiol], in data set [1], the “Vmax of CK metabolism” value is 0.68±0.04 nmol/nmol P450/min and 0.6756 nmol/nmol P450/min. For the same compound, in data set [2] (setting [4]), the “IC50 of CK higher than that of ketoconazole” value is reported as 41-123 fold and the “Ki of CK higher than that of ketoconazole” value worked out at 761 fold. For the same compound, in data set [2] (HLMs, Dixon and S/V versus [I] plots), the “type of inhibition of CYP3A4” value is recorded as “noncompetitive”. In data set [2] (HLMs, midazolam 1-hydroxylation, midazolam 5 μM, CK 10–100 μM), the IC50 is 9.83 µM and 9.82 µM. The same compound had a Ki in data set [2] (HLMs, midazolam 5–50 μM, secondary plot of Lineweaver–Burk slopes) of 11.4 µM. The “inhibitor potency class for CYP3A4” value in data set [2] (classified by IC50 according to Kong et al) is recorded as “potent (potent, if IC50≤ 20 μg/mL or ≤10 μM)”. In addition, the “Vmax of CK metabolism” value in data set [3] is 0.45±0.05 nmol/nmol P450/min and 0.4537 nmol/nmol P450/min.
